From patent US10167270B2, “Substituted quinazoline compounds and uses thereof for modulating glucocerebrosidase activity” (Northwestern University, priority 2015, dated 2019)
pIC50: −log10 of the molar value. Where two headings read alike, the source gives them in different places. Blank lines part the entries; values can stand above or below the compound they belong to.

Molecular target: Glucocerebrosidase (Homo sapiens (Human), UniProt P04062)
Assay: Glucocerebrosidase activity assay with blue substrate (4MU-Glc)
Type: biochemical
Settings: for Activity AC50 or IC50: direction not given; for IC50: nM indicated
Procedure: The compounds in DMSO solution 0.5 μL/well were transferred to a black 96-well plate. The final titration was 24 nM to 50 μM, 12 concentrations, 2 times dilution. […] After 5 min of incubation at room temperature, the enzyme reaction was initiated by the addition of 33 μL/well blue substrate. Final concentrations of the blue substrate (4MU-Glc) was 1.5 mM. The blue substrate reaction was terminated by the addition of 33 μL/well stop solution (1 M NaOH and 1 M glycine mixture, pH 10) after 30 min of incubation at 37° C. The fluorescence was then measured in the Biotek Synergy H1 multi-mode plate reader with Ex=365 nm and Em=440 nm.
Additional compounds were prepared and tested according to the procedures provided in the examples above.
Additional substituted quinazoline compounds were prepared and tested according to the procedures provided in the examples above.

[1] = marked (inh), inhibitor, read-out: IC50 or AC50 (inh)
[2] = marked (act), activator, AC50, read-out: IC50 or AC50 (act)
[3] = marked inhibitor, read-out: Activity AC50 or IC50 (inhibitor)
[4] = marked activator, AC50, read-out: Activity AC50 or IC50 (activator)

Chain of Glucocerebrosidase (P04062 40-536): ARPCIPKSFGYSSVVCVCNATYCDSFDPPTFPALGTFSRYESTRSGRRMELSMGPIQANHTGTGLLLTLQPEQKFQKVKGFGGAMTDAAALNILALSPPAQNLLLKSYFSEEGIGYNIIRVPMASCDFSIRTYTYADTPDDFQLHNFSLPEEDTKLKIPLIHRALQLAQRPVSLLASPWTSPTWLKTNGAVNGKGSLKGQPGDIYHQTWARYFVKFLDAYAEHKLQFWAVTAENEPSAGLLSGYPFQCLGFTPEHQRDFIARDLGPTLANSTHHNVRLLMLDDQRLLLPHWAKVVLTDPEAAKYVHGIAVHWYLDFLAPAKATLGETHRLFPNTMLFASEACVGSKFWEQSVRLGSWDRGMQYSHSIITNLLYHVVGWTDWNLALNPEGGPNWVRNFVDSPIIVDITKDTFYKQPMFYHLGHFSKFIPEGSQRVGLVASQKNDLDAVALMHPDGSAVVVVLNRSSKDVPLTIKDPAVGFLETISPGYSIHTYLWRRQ

pIC50 [1]: 8.15
SMILES: c1cncc(-c2nc(NC3Cc4ccccc4C3)c3ccccc3n2)c1 [compound 1]

pIC50 [1]: 5.67
SMILES: CN(c1nc(-c2cccnc2)nc2ccccc12)C1Cc2ccccc2C1 [compound 2]

SMILES: CN(Cc1nc2ccccc2[nH]1)c1nc(-c2cccnc2)nc2ccccc12 [compound 15]
AC50 [2]: 8910 nM

pIC50 [1]: 5.10
SMILES: c1cncc(-c2nc(NCC3COc4ccccc4O3)c3ccccc3n2)c1 (stereo not drawn) [compound 20]

pIC50 [1]: 4.45
SMILES: c1cncc(-c2nc(N3CCNCC3)c3ccccc3n2)c1 [compound 23]

pIC50 [1]: 5.65
SMILES: O=C(C1COc2ccccc2O1)N1CCN(c2nc(-c3cccnc3)nc3ccccc23)CC1 (stereo not drawn) [compound 29]

IC50 or AC50 (act) (marked (act), activator, AC50): Weak (act)
SMILES: Nc1nc(-c2cccnc2)nc2ccccc12 [compound 35]

IC50 or AC50 (act) (marked (act), activator, AC50): Weak (act)
SMILES: [N-]=[N+]=Nc1c(F)c(F)c(CNc2nc(-c3cccnc3)nc3ccccc23)c(F)c1F [compound 37]

IC50 or AC50 (act) (marked (act), activator, AC50): Weak (act)
SMILES: CN1CCN(c2ccc(C(=O)N3CCN(c4nc(-c5cccnc5)nc5ccccc45)CC3)cc2)CC1 [compound 38]

pIC50 [1]: 6.10
SMILES: c1cncc(-c2nc(NC3CCCC3)c3ccccc3n2)c1 [compound 39]

pIC50 [1]: 6.75
SMILES: c1cncc(-c2nc(NC3CCCCC3)c3ccccc3n2)c1 [compound 40]

pIC50 [1]: 4.45
SMILES: CC(C)N1CCC(Nc2nc(-c3cccnc3)nc3ccccc23)CC1 [compound 41]

pIC50 [1]: 4.40
SMILES: c1cncc(-c2nc(NC3CC3)c3ccccc3n2)c1 [compound 42]

pIC50 [1]: 5.35
SMILES: c1cncc(-c2nc(NC3CCC3)c3ccccc3n2)c1 [compound 43]

pIC50 [1]: 4.50
SMILES: c1ccc(CN2CCC(Nc3nc(-c4cccnc4)nc4ccccc34)CC2)cc1 [compound 44]

IC50 or AC50 (inh) (marked (inh), inhibitor): Weak (inh)
SMILES: CN1CCC(Nc2nc(-c3cccnc3)nc3ccccc23)CC1 [compound 45]

pIC50 [1]: 7.05
SMILES: CC1CCCCC1Nc1nc(-c2cccnc2)nc2ccccc12 (stereo not drawn) [compound 48]

SMILES: c1ccc(Nc2nc(-c3cccnc3)nc3ccccc23)cc1 [compound 50]
IC50 or AC50 (act) (marked (act), activator, AC50): Weak (act)

SMILES: c1ccc(CNc2nc(-c3cccnc3)nc3ccccc23)cc1 [compound 51]
pIC50 [1]: 5.15

pIC50 [1]: 5.75
SMILES: c1ccc(CCCNc2nc(-c3cccnc3)nc3ccccc23)cc1 [compound 52]

pIC50 [1]: 5.80
SMILES: c1ccc(CCCCNc2nc(-c3cccnc3)nc3ccccc23)cc1 [compound 53]

IC50 or AC50 (act) (marked (act), activator, AC50): Weak (act)
SMILES: CC(C)(C)Nc1nc(-c2cccnc2)nc2ccccc12 [compound 54]

pIC50 [1]: 6.85
SMILES: Fc1cccc(CCNc2nc(-c3cccnc3)nc3ccccc23)c1 [compound 55]

pIC50 [1]: 6.45
SMILES: c1cncc(-c2nc(NCC3CCCCC3)c3ccccc3n2)c1 [compound 57]

pIC50 [1]: 7.20
SMILES: c1cncc(-c2nc(NC3CCCCCC3)c3ccccc3n2)c1 [compound 58]

pIC50 [1]: 6.95
SMILES: c1ccc(CCNc2nc(-c3cccnc3)nc3ccccc23)cc1 [compound 60]

pIC50 [1]: 6.55
SMILES: c1cncc(-c2nc(NCCC3CCCCC3)c3ccccc3n2)c1 [compound 63]

pIC50 [1]: 6.50
SMILES: FC1(F)CCC(Nc2nc(-c3cccnc3)nc3ccccc23)CC1 [compound 65]

pIC50 [1]: 6.05
SMILES: c1cncc(-c2nc(NC3CCc4ccccc43)c3ccccc3n2)c1 (stereo not drawn) [compound 67]

SMILES: c1cncc(-c2nc(NC3CCCc4ccccc43)c3ccccc3n2)c1 (stereo not drawn) [compound 68]
pIC50 [1]: 5.95

pIC50 [1]: 5.95
SMILES: c1ccc(CCNc2nc(-c3cccnc3)nc3ccccc23)nc1 [compound 69]

pIC50 [1]: 5.30
SMILES: c1cncc(CCNc2nc(-c3cccnc3)nc3ccccc23)c1 [compound 70]

AC50 [2]: 1280 nM
SMILES: c1cncc(-c2nc(NCCc3c[nH]c4ccccc34)c3ccccc3n2)c1 [compound 72]

pIC50 [1]: 5.75
SMILES: Cc1ccc(CCNc2nc(-c3cccnc3)nc3ccccc23)cc1 [compound 73]

pIC50 [1]: 5.80
SMILES: CN(c1nc(-c2cccnc2)nc2ccccc12)C1CCc2ccccc2C1 (stereo not drawn) [compound 75]

pIC50 [1]: 7.55
SMILES: c1cncc(-c2nc(NC3CCCCCCC3)c3ccccc3n2)c1 [compound 76]

pIC50 [1]: 7.70
SMILES: CC1CCC(Nc2nc(-c3cccnc3)nc3ccccc23)CC1 (stereo not drawn) [compound 77]

pIC50 [1]: 6.45
SMILES: c1cncc(-c2nc(NC3CC4CCC3C4)c3ccccc3n2)c1 (stereo not drawn) [compound 78]

pIC50 [1]: 5.95
SMILES: c1cncc(-c2nc(NC34CC5CC(CC(C5)C3)C4)c3ccccc3n2)c1 [compound 79]

IC50 or AC50 (act) (marked (act), activator, AC50): Weak (act)
SMILES: c1ccc(C2CCCN(c3nc(-c4cccnc4)nc4ccccc34)C2)cc1 (stereo not drawn) [compound 82]

pIC50 [1]: 6.30
SMILES: CN(c1nc(-c2cccnc2)nc2ccccc12)[C@H]1CCc2ccccc2C1 [compound 84]

pIC50 [1]: 6.34
SMILES: CC1(C)CCC(Nc2nc(-c3cccnc3)nc3ccccc23)CC1 [compound 85]

pIC50 [1]: 7.10
SMILES: CC1CCCC(Nc2nc(-c3cccnc3)nc3ccccc23)C1 (stereo not drawn) [compound 86]

IC50 or AC50 (inh) (marked (inh), inhibitor): Weak (inh)
SMILES: CN(c1nc(-c2cccnc2)nc2ccccc12)[C@@H]1CCc2ccccc2C1 [compound 88]

pIC50 [1]: 6.77
SMILES: Ic1ccc2c(c1)CC(Nc1nc(-c3cccnc3)nc3ccccc13)C2 (stereo not drawn) [compound 89]

pIC50 [3]: 5.55
SMILES: c1ccc(OCCCNc2nc(-c3cccnc3)nc3ccccc23)cc1 [compound 91]

pIC50 [3]: 5.30
SMILES: CC(CNc1nc(-c2cccnc2)nc2ccccc12)Oc1ccccc1 (stereo not drawn) [compound 92]

AC50 [4]: 6310 nM
SMILES: c1cncc(-c2nc(N3CCc4[nH]c5ccccc5c4C3)c3ccccc3n2)c1 [compound 93]

AC50 [4]: 2820 nM
SMILES: c1cncc(-c2nc(N3CCc4c([nH]c5ccccc45)C3)c3ccccc3n2)c1 [compound 94]

pIC50 [3]: 5.65
SMILES: CCCCCCCCNc1nc(-c2cccnc2)nc2ccccc12 [compound 95]

pIC50 [3]: 6.25
SMILES: CC(C)(C)OC(=O)NCCC#Cc1ccc2c(c1)CC(Nc1nc(-c3cccnc3)nc3ccccc13)C2 (stereo not drawn) [compound 96]

pIC50 [3]: 5.60
SMILES: CC(COc1ccccc1)Nc1nc(-c2cccnc2)nc2ccccc12 (stereo not drawn) [compound 97]

pIC50 [3]: 7.10
SMILES: Oc1ccc2c(c1)C[C@@H](Nc1nc(-c3cccnc3)nc3ccccc13)CC2 [compound 98]

pIC50 [3]: 6.05
SMILES: NCCC#Cc1ccc2c(c1)CC(Nc1nc(-c3cccnc3)nc3ccccc13)C2 (stereo not drawn) [compound 99]

pIC50 [3]: 6.75
SMILES: Brc1ccc2c(c1)CC(Nc1nc(-c3cccnc3)nc3ccccc13)C2 (stereo not drawn) [compound 100]

Activity AC50 or IC50 (activator) (marked activator, AC50): Weak activator
SMILES: CN(c1nc(-c2cccnc2)nc2ccccc12)C1Cc2ccc(C#CCCCCCCCCC(=O)ON3C(=O)CCC3=O)cc2C1 (stereo not drawn) [compound 105]

pIC50 [3]: 6.85
SMILES: c1cncc(-c2nc(NCCCCCCCCCCNc3nc(-c4cccnc4)nc4ccccc34)c3ccccc3n2)c1 [compound 108]

Activity AC50 or IC50 (activator) (marked activator, AC50): Weak activator
SMILES: COC(=O)CCCCCCCCC#Cc1ccc(OCCN(C)c2nc(-c3cccnc3)nc3ccccc23)cc1 [compound 109]

Activity AC50 or IC50 (activator) (marked activator, AC50): Weak activator
SMILES: CN(CCOc1ccc(C#CCOCCOCCNc2nc(-c3cccnc3)nc3ccccc23)cc1)c1nc(-c2cccnc2)nc2ccccc12 [compound 110]

SMILES: CN(CCCCCCCCCCN(C)c1nc(-c2cccnc2)nc2ccccc12)c1nc(-c2cccnc2)nc2ccccc12 [compound 112]
Activity AC50 or IC50 (activator): Weak activator

Activity AC50 or IC50 (activator) (marked activator, AC50): Weak activator
SMILES: c1cncc(-c2nc(N3CCCOCC3)c3ccccc3n2)c1 [compound 116]

AC50 [4]: 5010 nM
SMILES: CN(CCCc1ccccc1)c1nc(-c2cccnc2)nc2ccccc12 [compound 119]

Activity AC50 or IC50 (activator) (marked activator, AC50): Weak activator
SMILES: CN(c1nc(-c2cccnc2)nc2ccccc12)C1CCCCCCC1 [compound 123]

Activity AC50 or IC50: Inactive
SMILES: CN(CCOc1ccccc1)c1nc(-c2cccs2)nc2ccccc12 [compound 125]

Activity AC50 or IC50: Inactive
SMILES: CN(CCOc1ccccc1)c1nc(-c2ccsc2)nc2ccccc12 [compound 126]

Activity AC50 or IC50: Inactive
SMILES: CN(CCOc1ccccc1)c1nc(-c2ccc(F)cc2)nc2ccccc12 [compound 129]

Activity AC50 or IC50: Inactive
SMILES: CN(CCOc1ccccc1)c1nc(-c2ccccc2)nc2ccccc12 [compound 131]

Activity AC50 or IC50: Inactive
SMILES: CN(CCOc1ccccc1)c1nc(-c2cccc(F)c2)nc2ccccc12 [compound 132]

pIC50 [3]: 4.95
SMILES: c1ccc(COCCNc2nc(-c3cccnc3)nc3ccccc23)cc1 [compound 140]

pIC50 [3]: 4.95
SMILES: CN(CCOCc1ccccc1)c1nc(-c2cccnc2)nc2ccccc12 [compound 141]

pIC50 [3]: 8.15
SMILES: Nc1ccc(-c2nc(NC3Cc4ccccc4C3)c3ccccc3n2)cc1 [compound 142]

Activity AC50 or IC50 (activator) (marked activator, AC50): Weak activator
SMILES: CN(CCOc1ccccc1)c1nc(-c2ccccn2)nc2ccccc12 [compound 143]

Activity AC50 or IC50 (inhibitor) (marked inhibitor): Weak inhibitor
SMILES: CN(CCOc1ccccc1)c1nc(-c2ccc(N)cc2)nc2ccccc12 [compound 144]

IC50 [3]: 5.6 nM
SMILES: CC(C)(C)OC(=O)NCCCCCC(=O)Nc1ccc(-c2nc(NC3Cc4ccccc4C3)c3ccccc3n2)cc1 [compound 145]

IC50 [3]: 39.8 nM
SMILES: CC(C)(C)OC(=O)NCCOCCOCC(=O)Nc1ccc(-c2nc(NC3Cc4ccccc4C3)c3ccccc3n2)cc1 [compound 146]

IC50 [3]: 7.5 nM
SMILES: NCCCCCC(=O)Nc1ccc(-c2nc(NC3Cc4ccccc4C3)c3ccccc3n2)cc1 [compound 147]

Activity AC50 or IC50 (activator) (marked activator, AC50): activator
SMILES: CN(CCOc1ccc(C#CCCCCCCCCC(=O)ON2C(=O)CCC2=O)cc1)c1nc(-c2cccnc2)nc2ccccc12 [compound 153]

IC50 [3]: 1.95 nM
SMILES: O=C(CCCC[C@@H]1SC[C@@H]2NC(=O)N[C@@H]21)NCCOCCOCCOCCOCCC(=O)NCCCCCC(=O)Nc1ccc(-c2nc(NC3Cc4ccccc4C3)c3ccccc3n2)cc1 [compound 156]
